Measurements reported in patent publication US9499490B2, “Fluorophenyl pyrazol compounds” (Eli Lilly and Company, priority 2013, dated 2016).
pIC50: −log10 of the molar value.

Legend:
human MetAP2 = target: T1, human MetAP2 (Homo sapiens, UniProt P50579); experiment: Enzymatic activity assay of human MetAP2 (LC/MS detection of product peptide); format: biochemical; conditions: full length human MetAP2, substrate 150 μM, 40 min; read-out: IC50 value for hMetAP2
T1 construct: Full length MetAP2 (human and mouse) and MetAP1 (human) proteins are generated from Sf9 cells; made in house; host or cells: Sf9 insect cells
Experimental: (§1) Full length MetAP2 (human and mouse) and MetAP1 (human) proteins are generated from Sf9 cells using procedure similar to that described in Biochemistry 2003, 42, 5035-5042. MetAP2 and MetAP1 are purified in the presence of 5 mM MnCl2 and 2 mM CoCl2 respectively, and stored at −78° C. before use.
(§2) Compound inhibition of the catalytic activity of human and mouse MetAP2 in the present invention is monitored by the formation of the product peptide (Gly-Lys-Val-Lys-Val-Gly-Val-Asn-Gly) from the substrate peptide (Met-Gly-Lys-Val-Lys-Val-Gly-Val-Asn-Gly) via LC/MS detection. The reaction is typically conducted by incubating the enzyme, testing compound and substrate (150 μM) in a 100 μl assay buffer (50 mM HEPES, 100 mM NaCl, 50 mg/mL BSA, 0.17 mM Triton X-100 at pH 7.5) for 40 min. After the reaction is stopped by the addition of 200 μl acetonitrile, the levels of product and remaining substrate are quantified on a mass spectrometer. The activity of human MetAP1 is monitored by the formation of the fluorescent product rhodmine-methionine from the substrate methionine-rhodamine-methionine on a spectrophotometer with the excitation light at 460 nm and emission light at 535 nm. The reaction is typically conducted by incubating the enzyme, testing compound and substrate (50 μM) in a 100 μl assay buffer (50 mM HEPES, 100 mM NaCl, 0.1% BSA, 0.05% Tween-20, 50 μM CoCl2) for 60 min. […]

mouse MetAP2 = target: T2, mouse MetAP2 (Mus musculus, UniProt O08663); experiment: Enzymatic activity assay of mouse MetAP2 (LC/MS detection of product peptide); format: biochemical; conditions: full length mouse MetAP2, substrate 150 μM, 40 min; read-out: IC50 value for mMetAP2
T2 construct: Full length MetAP2 (human and mouse) and MetAP1 (human) proteins are generated from Sf9 cells; made in house; host or cells: Sf9 insect cells
Experimental: as §1, §2

human MetAP1 = target: T3, human MetAP1 (Homo sapiens, UniProt P53582); experiment: Enzymatic activity assay of human MetAP1 (fluorescent rhodamine substrate); format: biochemical; conditions: full length human MetAP1, substrate 50 μM, 60 min
T3 construct: Full length MetAP2 (human and mouse) and MetAP1 (human) proteins are generated from Sf9 cells; made in house; host or cells: Sf9 insect cells
Experimental: as §1, §2

obese DIO mice = experiment: Therapeutic weight loss effect in high fat diet induced obese (DIO) mice; format: in vivo, mouse; conditions: oral 30 mg/kg twice a day
Experimental: To determine the therapeutic weight loss effects and improvement of metabolic parameters, compounds from the invention are tested in the high fat diet (HFD) feeding induced obese mouse model (DIO mice). In this model, C57/B16J male mouse is fed with the 60% HFD (D12492i, Research Diets) for 16˜28 weeks to establish obesity with body weight reaching around 50 g. The mice will gradually increase the body weight to about 50 g and maintain that weight in this obese state. Test compound (via the vehicle of 0.5% HEC plus 0.25% Tween-80 at 5 mL/kg) is administered orally to the obese DIO mice once or twice daily throughout the study duration. The dose-dependent weight loss of obese DIO mice for Example 1 of the oral treatment at 30 mg/kg twice a day is about 6%, 10%, and 14% weight loss compared to the vehicle group at day 7, day 14, and day 21 respectively. The data support that the compound of Example 1 is associated with desired weight loss and offers therapeutic weight loss effect.

T1 sequence (P50579 whole entry): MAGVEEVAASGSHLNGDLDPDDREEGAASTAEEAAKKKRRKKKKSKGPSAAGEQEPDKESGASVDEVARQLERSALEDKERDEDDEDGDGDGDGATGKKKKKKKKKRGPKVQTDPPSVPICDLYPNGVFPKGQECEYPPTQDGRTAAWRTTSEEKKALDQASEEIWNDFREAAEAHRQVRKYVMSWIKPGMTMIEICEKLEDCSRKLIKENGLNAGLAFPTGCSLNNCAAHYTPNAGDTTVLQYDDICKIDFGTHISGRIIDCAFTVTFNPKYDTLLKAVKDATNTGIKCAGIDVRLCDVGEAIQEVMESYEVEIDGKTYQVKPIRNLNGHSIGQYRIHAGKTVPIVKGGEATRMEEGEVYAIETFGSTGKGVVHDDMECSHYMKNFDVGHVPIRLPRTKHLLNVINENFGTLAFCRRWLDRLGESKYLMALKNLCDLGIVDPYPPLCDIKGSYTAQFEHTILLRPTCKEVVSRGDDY
T2 sequence (O08663 whole entry): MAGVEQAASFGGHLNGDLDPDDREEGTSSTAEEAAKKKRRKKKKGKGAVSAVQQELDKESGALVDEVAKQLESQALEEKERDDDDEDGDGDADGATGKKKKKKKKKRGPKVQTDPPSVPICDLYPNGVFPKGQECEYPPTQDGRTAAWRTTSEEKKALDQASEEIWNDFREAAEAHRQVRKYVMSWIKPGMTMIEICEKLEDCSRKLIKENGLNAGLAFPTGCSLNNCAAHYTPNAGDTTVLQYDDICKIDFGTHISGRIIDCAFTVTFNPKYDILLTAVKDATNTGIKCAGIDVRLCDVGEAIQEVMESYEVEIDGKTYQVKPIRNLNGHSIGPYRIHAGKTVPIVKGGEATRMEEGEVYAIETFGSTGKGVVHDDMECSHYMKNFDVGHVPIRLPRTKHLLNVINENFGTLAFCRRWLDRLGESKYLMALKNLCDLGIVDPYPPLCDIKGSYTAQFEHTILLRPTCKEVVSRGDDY

pIC50 (human MetAP2): 7.96
pIC50 (mouse MetAP2): 7.44
pIC50 (human MetAP1): < 4.52
Structure (SMILES): NC(=O)NCc1cccc(Oc2c[nH]nc2-c2ccc(F)cc2)c1 [Example 1, [3-[[3-(4-Fluorophenyl)-1H-pyrazol-4-yl]oxy]phenyl]methylurea]
weight loss compared to the vehicle group (obese DIO mice; day 7): about 6%
weight loss compared to the vehicle group (obese DIO mice; day 14): ~10%
weight loss compared to the vehicle group (obese DIO mice; day 21): ~14%
